Experiments:
[1] = system: amphetamine-induced hyperactivity; design: method as in Kalinichev et al., 2013; conditions: 100 and 150 mg/kg, subcutaneous; ref Kalinichev et al., 2013; cited from earlier work
[2] = system: MK-801-induced disruption in spatial delayed alternation; assay: Spatial delayed alternation test (T-maze); type: in vivo, Wistar rats; conditions: 10 mg/kg, 30 min prior to MK-801 (0.1 mg/kg), rats
Protocol: The spatial delayed alternation test was performed using a wooden T-maze, according to [Sławińska et al., 2013] and [Wierońska et al., 2015b].
During the adaptation phase, lasting 3 days, the animals were allowed to freely explore the maze for 10 min. For the next 2 days, rats were confined to either of the two end-arms and allowed to drink a 10 % sucrose solution there for 10 min twice daily. On the following day, a 2-week training phase was started. The animals performed one training session per day, which consisted of one forced trial (i.e., one of the end-arms was closed) followed by ten free choice trials. During the free choice trial the animal was placed in the starting arm and after the guillotine door was raised, it was allowed to choose to enter one of the end-arms. After the response, the rat was placed back to the starting arm, where it stayed for 10 s. If the chosen end-arm was the opposite to the previously visited one, a correct response was scored, and the animal was closed in the compartment where it was allowed to drink the sucrose solution for 5 s. After an incorrect response, the animal was gently returned to the starting arm. The training phase was carried out until the animals scored 7 correct responses in a training session in 2 consecutive days.
The test was started 30 min after the MK-801 injection.

Row | Compound | Activity in amphetamine-induced hyperactivity [1] | Effect on MK-801-induced reduction of choice accuracy (spatial delayed alternation) [2]
1 | CCc1nc2c(o1)CC(c1ccc(C)cc1C)CC2=O (centres unmarked) [ADX71743, 6-(2,4-Dimethylphenyl)-2-ethyl-6,7-dihydro-4(5H)-benzoxazolone] | active | –
2 | COc1ccc(-c2cc3onc(-c4ccncc4)c3c(=O)n2C)cc1 [MMPIP, 6-(4-Methoxyphenyl)-5-methyl-3-(4-pyridinyl)-isoxazolo(4,5-c)pyridin-4(5H)-one] | – | rescued the MK-801–induced cognitive impairments

From PMC6158327, “Negative Allosteric Modulators of mGlu7 Receptor as Putative Antipsychotic Drugs” (Frontiers in Molecular Neuroscience, 2018)
